Experimental data: patent US20070173486A1, “Azetidinecarboxamide derivatives and their use in the treatment of cb1 receptor mediated disordrs” (VERNALIS RESEARCH LIMITED, priority 2003, published 2007)
pKi: −log10 of the molar value.

Biological target: T1, recombinant human CB1 receptors (Homo sapiens, UniProt P21554)
T1 construct: expressed in transfected cells; host or cells: HEK293
Assay: Binding to CB1 Receptors
Conditions: [3H]-SR-141716A 1 nM; membranes from HEK293 cells expressing recombinant hCB1; Ki calculated from IC50 (Cheng-Prusoff)
Experimental: The binding of compounds of Formula I to recombinant human CB1 receptors was determined in vitro by standard methods, with reference to the procedure described by Rinaldi-Carmona et al. (Rinaldi-Carmona, M., Pialot, F., Congy, C., Redon, E., Barth, F., Bachy, A., Breliere, J. C., Soubre, P., LeFur, G., Life Sci. 1996, 58(15), 1239-1247). Membranes were prepared from HEK293 cells expressing recombinant hCB1 receptors. Binding assays are performed in a total volume of 250 μL, containing [^3H]-SR-141716A (1 nM final concentration), membranes and test compound. Non-specific binding is determined using CP55,940 (10 μM). Serial dilutions are performed starting from test compounds as 10 mM solutions in DMSO. Compounds are tested over the concentration range 10^−10 M to 10^−5 M. Ki values are calculated from IC50 values using the Cheng-Prusoff equation.

T1 sequence (P21554 whole entry): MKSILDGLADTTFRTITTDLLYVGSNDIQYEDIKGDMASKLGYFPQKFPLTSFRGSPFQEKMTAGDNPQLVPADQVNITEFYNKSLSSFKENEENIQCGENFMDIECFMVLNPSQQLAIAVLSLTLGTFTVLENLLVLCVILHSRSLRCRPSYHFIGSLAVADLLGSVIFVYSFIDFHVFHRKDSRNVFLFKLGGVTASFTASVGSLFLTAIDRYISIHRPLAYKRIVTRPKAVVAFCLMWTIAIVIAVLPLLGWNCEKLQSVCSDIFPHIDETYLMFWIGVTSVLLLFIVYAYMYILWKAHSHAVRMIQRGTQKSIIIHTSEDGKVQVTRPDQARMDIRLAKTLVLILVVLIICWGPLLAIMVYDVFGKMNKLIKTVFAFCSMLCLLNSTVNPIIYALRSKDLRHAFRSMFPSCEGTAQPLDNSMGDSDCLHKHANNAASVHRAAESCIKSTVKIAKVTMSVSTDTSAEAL

Work on `CCCCS(=O)(=O)N1CC(OC(c2ccc(Cl)cc2)c2ccc(Cl)cc2Cl)C1` (stereo not drawn) [Example 20, 1-(n-butyl)sulfonyl-3-(2,4,4′-trichlorobenzhydryloxy)azetidine] yielded a pKi of 8.26.

`CO[C@H](C(=O)N1CC(OC(c2ccc(Cl)cc2)c2ccc(Cl)cc2Cl)C1)c1ccccc1` (stereo partly drawn) [Example 11, 3-(2,4,4′-trichlorobenzhydryloxy)-1-[(S)-2-methoxy-2-phenylethanoyl]azetidine] was tested, and the pKi was 8.49.

Molecule `CC(C)(C)OC(=O)N1CCCN(C(=O)N2CC(OC(c3ccc(Cl)cc3)c3ccccc3Cl)C2)CC1` (stereo not drawn) [Example 1, 4-[3-(2,4′-dichlorobenzhydryloxy)azetidine-1-carbonyl]-[1,4]diazepine-1-carboxylic acid tert-butyl ester] has a pKi of 9.10.

In the case of `CN(Cc1ccccc1)C(=O)N1CC(OC(c2ccc(Cl)cc2)c2ccccc2C(F)(F)F)C1` (stereo not drawn) [Example 4, 3-[2-(trifluoromethyl)-4′-chlorobenzhydryloxy]-N-methyl-N-benzyl-azetidine-1-carboxamide], the pKi was 8.82.

With `CC(C)(C)NC(=O)N1CC(OC(c2ccc(Cl)cc2)c2cccnc2Cl)C1` (single isomer, unassigned) [Example 34, 3-[(S*)-4-chloro-[…]-(2-chloropyridin-3-yl)benzyloxy]-N-(tert-butyl)azetidine-1-carboxamide] the pKi was 8.07.

`CC(C)(C)NC(=O)N1CC(OC(c2ccc(Cl)cc2)c2cccnc2Cl)C1` (racemic) [Example 32, 3-[4-chloro-[…]-(2-chloropyridin-3-yl)benzyloxy]-N-(tert-butyl)azetidine-1-carboxamide] was tested, and the pKi was 7.56.
